Results taken from US8558028B2, “Compound capable of inhibiting 17-beta hydroxysteriod dehydrogenase” (University of Bath of Claverton Down, priority 2007, dated 2013).

molecular target: T1, human 17β-HSD3 (Homo sapiens, UniProt P37058); experiment: 17β-Hydroxysteroid dehydrogenase Type 3 activity in stably transfected 293-EBNA cells (TLC assay, 3H-androstenedione to testosterone); type: cell-based; settings: human 293-EBNA cells stably transfected with 17β-HSD Type 3, mean of at least 2 measurements, typically SD ±5%
T1 construct: 293-EBNA cells stably transfected with 17β-HSD Type 3; expressed in transfected cells; host or cells: human 293-EBNA cells, stably transfected
T1 sequence (P37058 1-310): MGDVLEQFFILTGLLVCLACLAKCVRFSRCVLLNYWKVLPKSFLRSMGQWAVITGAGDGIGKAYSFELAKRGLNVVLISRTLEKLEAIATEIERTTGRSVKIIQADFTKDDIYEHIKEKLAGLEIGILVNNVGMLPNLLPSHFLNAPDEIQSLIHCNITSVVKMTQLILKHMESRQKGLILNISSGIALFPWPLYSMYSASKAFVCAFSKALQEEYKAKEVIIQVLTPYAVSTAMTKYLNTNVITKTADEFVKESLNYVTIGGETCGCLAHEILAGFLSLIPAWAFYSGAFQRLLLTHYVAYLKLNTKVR
Method: Assay Protocol-17β-Hydroxysteroid Dehydrogenase Type 3 Activity in the Presence of Regulatory Agents
293-EBNA cells stably transfected with 17β-HSD Type 3 were plated at 50,000 cells/well in 24 well plates in complete growth medium. After 48 hours 2-3 nM ^3H-Androstenedione in assay medium (500 ml DMEM medium with 5 ml 100×L-Glutamine, and 5 ml 7.5% sodium bicarbonate solution) was added with or without test compound at 1.5 ml/well (triplicate), and the cells incubated at 37° C.
Two hours later 1 ml medium was removed from each well and placed in a 125×16 mm glass test tube containing 25 μl of recovery solution (5000 dpm ^14C-Testosterone and 25 μg unlabelled
Testosterone). Ether (4 ml) was added and the tubes vortexed at high speed for 2×30 sec. After the samples had settled into two phases they were snap-frozen in a dry ice/methanol bath. The upper organic phase was decanted into 75×12 mm tubes and evaporated to dryness under an airstream using a sample concentrator (TECHNE) at 40° C. The samples were resuspended in ether (8 drops, then a further 3), spotted onto silica 60 F254 20 cm×20 cm TLC plates, and separated using a 4:1 v/v dichloromethane:ethyl acetate mobile phase.
After drying the plates, the major spots were marked under a UV lamp, cut out, and placed in individual scintillation vials containing 0.5 ml methanol. These were then shaken lightly and allowed to stand for 15 min before adding 10 ml of EcoScint A (scintillation fluid) to each tube along with 0.5 ml assay medium, and counted in a scintillation spectrometer (Beckman) using a program for dual [^3H/^14C] isotopes. The number of cells/well was then counted using a Coulter counter (Beckman).
The inhibitory activity of the test compounds is then assessed by calculating the amount of product formed correcting for crossover between isotope counts, recovery, dilution and non-enzymatic degradation (fmol/hr/million cells) with and without inhibitor, (% inhibition).
Compounds were tested at 10 μM for inhibition of human 17β-HSD3 with typically ˜200,000 to 300,000 human 293-EBNA cells/well.

**Q.** Which inhibition at 10 µM does the source give for `COc1cc(CNc2ccccc2Oc2ccc(Cl)cc2Cl)c(NC(C)=O)cc1OC` here?
**A.** The inhibition at 10 µM was less than 20%.

**Q.** `CC(=O)Nc1c(CNc2ccccc2Oc2ccc(Cl)cc2)ccc2ccccc12` was tested. Which inhibition at 10 µM did it give?
**A.** Its inhibition at 10 µM is less than 20%.

**Q.** With `CC(=O)Nc1ccccc1C(=O)Nc1ccccc1Oc1ccc(Cl)cc1` as the compound, how does the inhibition at 10 µM read?
**A.** Its inhibition at 10 µM is less than 20%.

**Q.** Which inhibition at 10 µM does the source give for `O=C(Nc1ccccc1C(=O)Nc1ccccc1Oc1ccc(Cl)cc1)c1ccccc1` here?
**A.** The inhibition at 10 µM was less than 20%.

**Q.** Which inhibition at 10 µM does the source give for `C=CCC(Nc1ccccc1Oc1ccc(Cl)cc1)c1ccccc1NC(C)=O` (centres unmarked) here?
**A.** Its inhibition at 10 µM is greater than 60%.

**Q.** `CC(=O)Nc1ccccc1CNc1ccccc1Oc1ccc(OC(F)(F)F)cc1` was tested. Which inhibition at 10 µM did it give?
**A.** The inhibition at 10 µM was greater than 60%.

**Q.** For `CC(=O)N(C)c1ccccc1CN(C)c1ccccc1Oc1ccc(Cl)cc1`, which inhibition at 10 µM is on record?
**A.** Its inhibition at 10 µM is 20 to 60%.

**Q.** How did the inhibition at 10 µM turn out when `CC(=O)Nc1ccccc1CNc1cc(F)ccc1Oc1ccc(Cl)cc1` was run?
**A.** Its inhibition at 10 µM is greater than 60%.

**Q.** Which inhibition at 10 µM does the source give for `CC(=O)N1CCC(C(=O)Nc2cccc(CNc3ccccc3Oc3ccc(Cl)cc3)c2)CC1` here?
**A.** The inhibition at 10 µM was greater than 60%.

**Q.** How did the inhibition at 10 µM turn out when `CCNc1ccccc1C(C)Nc1ccccc1Oc1ccc(Cl)cc1` (centres unmarked) was run?
**A.** The inhibition at 10 µM was 20 to 60%.

**Q.** How did the inhibition at 10 µM turn out when `CC(=O)Nc1ccc(C)cc1CNc1ccccc1Oc1ccc(Cl)cc1` was run?
**A.** The inhibition at 10 µM was greater than 60%.

**Q.** For `CCN(C(C)=O)c1ccccc1C(C)Nc1ccccc1Oc1ccc(Cl)cc1` (centres unmarked), which inhibition at 10 µM is on record?
**A.** The inhibition at 10 µM was greater than 60%.

**Q.** Which inhibition at 10 µM does the source give for `CC(=O)Nc1ccc(CNc2ccccc2Oc2ccc(Cl)cc2)cc1` here?
**A.** Its inhibition at 10 µM is 20 to 60%.

**Q.** How did the inhibition at 10 µM turn out when `CC(=O)Nc1cc2c(cc1CNc1ccccc1Oc1ccc(Cl)cc1)OCO2` was run?
**A.** The inhibition at 10 µM was greater than 60%.

**Q.** For `C=CC[C@@H](Nc1ccccc1Oc1ccc(Cl)cc1)c1ccccc1NC(C)=O`, which inhibition at 10 µM is on record?
**A.** Its inhibition at 10 µM is 20 to 60%.

**Q.** With `CC(=O)N1CCC(Nc2ccccc2CNc2ccccc2Oc2ccc(Cl)cc2)CC1` as the compound, how does the inhibition at 10 µM read?
**A.** The inhibition at 10 µM was 20 to 60%.

**Q.** For `CC(=O)Nc1ccccc1C(C)Nc1ccccc1Oc1ccc(Cl)cc1` (centres unmarked), which inhibition at 10 µM is on record?
**A.** The inhibition at 10 µM was greater than 60%.

**Q.** `CC(=O)Nc1ccccc1CN(C)c1ccccc1Oc1ccc(Cl)cc1` was tested. Which inhibition at 10 µM did it give?
**A.** The inhibition at 10 µM was less than 20%.

**Q.** `CC(=O)Nc1ccccc1CNc1ccccc1Oc1ccc(Cl)cc1` was tested. Which inhibition at 10 µM did it give?
**A.** Its inhibition at 10 µM is greater than 60%.

**Q.** `CC(=O)N1CCC(Nc2ccccc2CN(C(C)=O)c2ccccc2Oc2ccc(Cl)cc2)CC1` was tested. Which inhibition at 10 µM did it give?
**A.** Its inhibition at 10 µM is 20 to 60%.

**Q.** How did the inhibition at 10 µM turn out when `CC(=O)Nc1ccc(Cl)cc1CNc1ccccc1Oc1ccc(Cl)cc1` was run?
**A.** Its inhibition at 10 µM is greater than 60%.

**Q.** How did the inhibition at 10 µM turn out when `CC(=O)Nc1ccccc1C(Cc1ccccc1)Nc1ccccc1Oc1ccc(Cl)cc1` (centres unmarked) was run?
**A.** The inhibition at 10 µM was less than 20%.

**Q.** With `CCCC(Nc1ccccc1Oc1ccc(Cl)cc1)c1ccccc1NC(C)=O` (centres unmarked) as the compound, how does the inhibition at 10 µM read?
**A.** Its inhibition at 10 µM is greater than 60%.

**Q.** How did the inhibition at 10 µM turn out when `CC(=O)N1CCC(C(=O)Nc2ccccc2CNc2ccccc2Oc2ccc(Cl)cc2)CC1` was run?
**A.** Its inhibition at 10 µM is greater than 60%.

**Q.** With `CC(=O)Nc1ccccc1CN(C(C)=O)c1ccccc1Oc1ccc(Cl)cc1` as the compound, how does the inhibition at 10 µM read?
**A.** The inhibition at 10 µM was less than 20%.

**Q.** How did the inhibition at 10 µM turn out when `CC(=O)N(C)c1ccccc1CNc1ccccc1Oc1ccc(Cl)cc1` was run?
**A.** The inhibition at 10 µM was greater than 60%.

**Q.** How did the inhibition at 10 µM turn out when `CC(=O)Nc1cccc(CNc2ccccc2Oc2ccc(Cl)cc2)c1` was run?
**A.** The inhibition at 10 µM was 20 to 60%.

**Q.** Which inhibition at 10 µM does the source give for `CC(=O)Nc1ccc(CNc2ccccc2Oc2ccc(Cl)cc2Cl)cc1` here?
**A.** Its inhibition at 10 µM is less than 20%.

**Q.** Which inhibition at 10 µM does the source give for `COc1cc(CNc2ccccc2Oc2ccc(Cl)cc2)c(NC(C)=O)cc1OC` here?
**A.** The inhibition at 10 µM was less than 20%.

**Q.** `C=CC[C@H](Nc1ccccc1Oc1ccc(Cl)cc1)c1ccccc1NC(C)=O` was tested. Which inhibition at 10 µM did it give?
**A.** Its inhibition at 10 µM is greater than 60%.

**Q.** With `CC(=O)Nc1ccc(Cl)cc1CNc1ccccc1Oc1ccc(OC(F)(F)F)cc1` as the compound, how does the inhibition at 10 µM read?
**A.** Its inhibition at 10 µM is greater than 60%.

**Q.** For `CC(=O)Nc1ccc(Cl)cc1CNc1ccccc1Oc1ccc(Cl)cc1Cl`, which inhibition at 10 µM is on record?
**A.** The inhibition at 10 µM was 20 to 60%.
